# Measurements published in patent US20250195463A1, “ORGANOMETALLIC COMPLEX, CONTROLLED-RELEASE MULTI-FUNCTIONAL DRUG, PHARMACEUTICAL COMPOSITION, PROCESSES FOR THE PREPARATION THEREOF AND THEIR USE” (FACULDADE DE CIÊNCIAS DA UNIVERSIDADE DE LISBOA, priority 2022, published 2025).
# What was measured:
# [1] = Stability in aqueous medium (dimethyl sulfoxide/Dulbecco's Modified Eagle Medium) by UV-Vis spectroscopy; assay type: physicochemical; conditions: 5% dimethyl sulfoxide/95% Dulbecco's Modified Eagle Medium; for Relative variation of the maximum absorbance of the π→π* transitions: band 292-296 nm (λmax in column head); for Relative variation of the maximum absorbance of the charge transfer bands: band 358-400 nm (λmax in column head)
# Method in brief: (§1)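 UV-Vis spectra (270-900 nm) were recorded at intervals from 0 to 24 h, at room temperature in the dark. Solvents were 100% DMSO, or 5% or 10% DMSO in DMEM depending on complex, at 7.0×10^-5 M to 3.0×10^-4 M.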
# MDA-MB-231 (FGFR−) = assay: MTT cytotoxicity assay; conditions: MDA-MB-231
# Method in brief: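 Cells were exposed continuously for 48 h at 37 °C to compounds at 0.1 to 100 μM. In pH-controlled runs, RuPC1 stock was pre-incubated 48 h at pH 6.8 or 7.4, then tested at 0.1 to 50 μM. Viability was read by MTT (0.5 mg/mL, 3 h) absorbance at 570 nm versus untreated cells, with IC50 fitted.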
# [2] = Stability in organic medium (dimethyl sulfoxide) by UV-Vis spectroscopy; assay type: physicochemical; conditions: for Relative variation of the maximum absorbance of the π→π* transitions: band 289-300 nm (λmax in column head); for Relative variation of the maximum absorbance of the charge transfer bands: band 357-425 nm (λmax in column head)
# Method in brief: as §1
structure (smiles),measurement,setting,value
O=C(Cc1ccccc1)C1=C[CH]([Ru-]2([PH](c3ccccc3)(c3ccccc3)c3ccccc3)[n+]3ccccc3-c3cccc[n+]32)C=C1.O=S(=O)([O-])C(F)(F)F (stereo not shown) [compound 9],Relative variation of the maximum absorbance of the π→π* transitions,[1]; time 0 h,0.0%
same,Relative variation of the maximum absorbance of the charge transfer bands,[1]; time 0 h,0.0%
same,Relative variation of the maximum absorbance of the π→π* transitions,[1]; time 0.25 h,−0.2%
same,Relative variation of the maximum absorbance of the charge transfer bands,[1]; time 0.25 h,−0.7%
same,Relative variation of the maximum absorbance of the π→π* transitions,[1]; time 0.5 h,−0.3%
same,Relative variation of the maximum absorbance of the charge transfer bands,[1]; time 0.5 h,−0.8%
same,Relative variation of the maximum absorbance of the π→π* transitions,[1]; time 0.75 h,−0.5%
same,Relative variation of the maximum absorbance of the charge transfer bands,[1]; time 0.75 h,−0.9%
same,Relative variation of the maximum absorbance of the π→π* transitions,[1]; time 1 h,−0.3%
same,Relative variation of the maximum absorbance of the charge transfer bands,[1]; time 1 h,−1.0%
same,Relative variation of the maximum absorbance of the π→π* transitions,[1]; time 2 h,−0.2%
same,Relative variation of the maximum absorbance of the charge transfer bands,[1]; time 2 h,−1.2%
same,Relative variation of the maximum absorbance of the π→π* transitions,[1]; time 3 h,−0.3%
same,Relative variation of the maximum absorbance of the charge transfer bands,[1]; time 3 h,−1.4%
same,Relative variation of the maximum absorbance of the π→π* transitions,[1]; time 4 h,−0.4%
same,Relative variation of the maximum absorbance of the charge transfer bands,[1]; time 4 h,−1.5%
same,Relative variation of the maximum absorbance of the π→π* transitions,[1]; time 5 h,−0.2%
same,Relative variation of the maximum absorbance of the charge transfer bands,[1]; time 5 h,−1.6%
same,Relative variation of the maximum absorbance of the π→π* transitions,[1]; time 6 h,−0.5%
same,Relative variation of the maximum absorbance of the charge transfer bands,[1]; time 6 h,−1.7%
same,Relative variation of the maximum absorbance of the π→π* transitions,[1]; time 24 h,4.5%
same,Relative variation of the maximum absorbance of the charge transfer bands,[1]; time 24 h,−0.2%
same,IC50 range in words,MDA-MB-231 (FGFR−); Example 24,sub-micromolar range
same,IC50,"MDA-MB-231 (FGFR−); read-out: Cytotoxic activity expressed as IC50, Table 5, 48 h, 37° C.",310 nM
same,Relative variation of the maximum absorbance of the π→π* transitions,[2]; time 0 h,0.0%
same,Relative variation of the maximum absorbance of the charge transfer bands,[2]; time 0 h,0.0%
same,Relative variation of the maximum absorbance of the π→π* transitions,[2]; time 0.25 h,0.0%
same,Relative variation of the maximum absorbance of the charge transfer bands,[2]; time 0.25 h,0.2%
same,Relative variation of the maximum absorbance of the π→π* transitions,[2]; time 0.5 h,−0.2%
same,Relative variation of the maximum absorbance of the charge transfer bands,[2]; time 0.5 h,0.2%
same,Relative variation of the maximum absorbance of the π→π* transitions,[2]; time 0.75 h,−0.3%
same,Relative variation of the maximum absorbance of the charge transfer bands,[2]; time 0.75 h,0.2%
same,Relative variation of the maximum absorbance of the π→π* transitions,[2]; time 1 h,−0.3%
same,Relative variation of the maximum absorbance of the charge transfer bands,[2]; time 1 h,0.3%
same,Relative variation of the maximum absorbance of the π→π* transitions,[2]; time 2 h,−0.3%
same,Relative variation of the maximum absorbance of the charge transfer bands,[2]; time 2 h,0.6%
same,Relative variation of the maximum absorbance of the π→π* transitions,[2]; time 3 h,−0.1%
same,Relative variation of the maximum absorbance of the charge transfer bands,[2]; time 3 h,0.9%
same,Relative variation of the maximum absorbance of the π→π* transitions,[2]; time 4 h,−0.1%
same,Relative variation of the maximum absorbance of the charge transfer bands,[2]; time 4 h,0.6%
same,Relative variation of the maximum absorbance of the π→π* transitions,[2]; time 5 h,−0.3%
same,Relative variation of the maximum absorbance of the charge transfer bands,[2]; time 5 h,0.4%
same,Relative variation of the maximum absorbance of the π→π* transitions,[2]; time 6 h,−0.2%
same,Relative variation of the maximum absorbance of the charge transfer bands,[2]; time 6 h,0.7%
same,Relative variation of the maximum absorbance of the π→π* transitions,[2]; time 24 h,−0.1%
same,Relative variation of the maximum absorbance of the charge transfer bands,[2]; time 24 h,0.8%
